Data published in BigSolDB 2.1.

CCOC(=O)C1(c2ccccc2)CCN(CCC(C#N)(c2ccccc2)c2ccccc2)CC1
solubility (mole fraction)
Conditions | 278.15 K | 283.15 K | 288.15 K | 293.15 K | 298.15 K | 303.15 K | 308.15 K | 313.15 K | 318.15 K
in acetonitrile | 0.00208 | 0.00256 | 0.0033 | 0.00386 | 0.00492 | 0.0059 | 0.00738 | 0.00941 | 0.0126
in ethanol | 0.000882 | 0.00109 | 0.00127 | 0.00154 | 0.00193 | 0.00227 | 0.00277 | 0.0034 | 0.00432
in isopropanol | 0.000106 | 0.000155 | 0.000208 | 0.000274 | 0.000421 | 0.000601 | 0.000838 | 0.00114 | 0.00156
in methanol | 0.00341 | 0.00419 | 0.00501 | 0.0063 | 0.00759 | 0.00952 | 0.0118 | 0.0147 | 0.0186
in water | 4.09e-06 | 5.3e-06 | 6.84e-06 | 9.18e-06 | 1.14e-05 | 1.48e-05 | 1.91e-05 | 2.54e-05 | 3.28e-05
